Primed or numbered codes have the meaning given here. Where no end group is shown, it is not given here. Side-chain parts run from the residue outwards. maleimide = maleimide group (rhamnose-PEG12-maleimide) coupled to the N-terminal Cys of the peptide; PEG12′ = polyethylene glycol spacer of 12 units; Rha = rhamnose
Assays:
[1] = test system: HeLa cells (tumor spheroids); assay: Lectin-Cy3 binding to tumor spheroids pre-treated with rhamnose-pHLIP constructs (fluorescence confocal imaging); format: cell-based; conditions: HeLa spheroids pre-treated with 0-2 μM construct at pH 6.3, 37° C., 30 min, washed; then Lectin-Cy3 at pH 7.4; compared with lectin-Cy3 alone
Experimental: Induction of an immunological response requires a proper positioning of carbohydrate epitope at the surface of tumor cells. This was verified on 3-D tumor cancer cell culture (tumor spheroids). Briefly, a 2% agarose solution was made by dissolving in pH 7.4 PBS. 150 μL of the solution is pipetted into each well of a 48-well flat bottom tissue culture plate. After the agarose gel sufficiently settled (˜1 h), 150 μL of DMEM supplemented with 10% FBS and ciprofloxacin.HCl was added to each well. The covered plate was left in a humidified atmosphere at 37° C. and 5% CO2 in cell culture incubator for 24 h. On the next day, the excess medium was removed from the agarose layer. HeLa cells (10,000 cells) in 200 μL of DMEM containing 2% matrigel were added into each well and incubated for 3-4 days to allow the formation of spheroids. Matrigel was dissolved on ice overnight and added in ice cold DMEM at a concentration of 2.5% (to obtain a final concentration of 2% once added to the wells). Then the mixture was heated to 37° C. before being combined with the cells. Tumor spheroids were incubated in 50 μL of PBS buffer, pH 6.3 containing 0-2 μM Rha-pHLIP® or Rha-PEG12-pHLIP® in a humidified atmosphere of 5% CO2 at 37° C. for 30 min. After treatment, the spheroids were washed several times in 1 mL of PBS. […]

[2] = test system: B16-F10 melanoma murine cancer cells (flank tumor); assay: B16-F10 melanoma tumor weight in tri-Gal-immunized A3galt2-knockout mice after IP treatment; format: in vivo; conditions: B16-F10 flank tumors, IP injections 450 μl of 80 μM for 10 consecutive days (total 60 mg/kg), versus non-treated control group
Description: Mice deficient in α1-3 gylactosyltransferase 2 (A3galt2) on 129/SvEv-[…] background heterozygous breeding pairs was obtained from Taconic Biosciences. The knockout mouse model is described in the article entitled “Normal development and function of invariant natural killer T cells in mice with isoglobotrihexosylceramide (iGb3) deficiency” by Porubsky et al. PNAS 2007 Apr. 3; 104(14): 5977-5982, incorporated herein by reference in its entirety.
All animal studies with the Gal-pHLIP® construct were conducted according to the animal protocol AN1920-003 approved by the Institutional Animal Care and Use Committee at the University of Rhode Island, in compliance with the principles and procedures outlined by the National Institutes of Health for the care and use of animals. Homo- and heterozygous A3galt2-knockout female and male mice on 129/SvEv-C57BL/6J background were used in the study.
First, immunization of mice was performed to develop antibodies against tri-Gal epitope. Briefly, at day 1 mice were immunized with Galα1-3Galβ1-4Glc-HSA (HSA: human serum albumin) from Dextra Laboratories, 20 μg/mouse emulsified in complete Freund's adjuvant. Booster injections of Galα1-3Galβ1-4Glc-HSA emulsified in incomplete Freund's adjuvant were administered at days 13, 20 and 27. […]

AS(Rha)DDQNPWRAYLDLLFPTDTLLLDLLWA [Rha-pHLIP®]
binding of lectin-Cy3 (fluorescence) to tumor spheroids [1]: much stronger binding of lectin-Cy3

Rha-PEG12-pHLIP®: Rhamnose-PEG12-malemide coupled with single Cys at N-terminal end of pHLIP® ACDDQNPWRAYLDLLFPTDTLLLDLLWA (SEQ ID NO: 469) (AC([maleimide-PEG12′-Rha])DDQNPWRAYLDLLFPTDTLLLDLLWA)
binding of lectin-Cy3 (fluorescence) to tumor spheroids [1]: much stronger binding of lectin-Cy3

tri-Gal-PEG4-pHLIP®: tri-Gal-PEG4 (Galα(1,3)Galβ(1,4)Glc-PEG4) coupled with pHLIP® ACDDQNPWRAYLDLLFPTDTLLLDLLWA (SEQ ID NO: 469) (not fully specified (residue 2); also: tri-Gal-PEG4 (Galα(1,3)Galβ(1,4)Glc-PEG4) coupled, site not given here)
tumor weight reduction [2]: About 65%

Source: patent publication US11267853B2, “Carbohydrate tethering at cell surfaces to induce immune response” (University of Rhode Island Board of Trustees, priority 2019, dated 2022)
